Measurements published in patent US20030109568A1 (CHEIL JEDANG Corporation, priority 2001, published 2003).

How the values were obtained:
cyclooxygenase-2 = target: T1, cyclooxygenase-2 (Mus musculus, UniProt Q05769); assay: Cyclooxygenase-2 inhibition in aspirin-treated, LPS-stimulated mouse peritoneal macrophages (PGE2 ELISA); assay type: cell-based; details: for Inhibitory effects of cyclooxygenase (COX), COX-2: LPS-stimulated mouse peritoneal macrophages
T1 construct: Peritoneal fluid suspended with macrophages was extracted from a mouse peritoneal cavity; endogenous in cells; host or cells: primary mouse peritoneal macrophages, pretreated with 500 µM aspirin and stimulated with 10 µg/ml LPS
T1 sequence (Q05769 18-604): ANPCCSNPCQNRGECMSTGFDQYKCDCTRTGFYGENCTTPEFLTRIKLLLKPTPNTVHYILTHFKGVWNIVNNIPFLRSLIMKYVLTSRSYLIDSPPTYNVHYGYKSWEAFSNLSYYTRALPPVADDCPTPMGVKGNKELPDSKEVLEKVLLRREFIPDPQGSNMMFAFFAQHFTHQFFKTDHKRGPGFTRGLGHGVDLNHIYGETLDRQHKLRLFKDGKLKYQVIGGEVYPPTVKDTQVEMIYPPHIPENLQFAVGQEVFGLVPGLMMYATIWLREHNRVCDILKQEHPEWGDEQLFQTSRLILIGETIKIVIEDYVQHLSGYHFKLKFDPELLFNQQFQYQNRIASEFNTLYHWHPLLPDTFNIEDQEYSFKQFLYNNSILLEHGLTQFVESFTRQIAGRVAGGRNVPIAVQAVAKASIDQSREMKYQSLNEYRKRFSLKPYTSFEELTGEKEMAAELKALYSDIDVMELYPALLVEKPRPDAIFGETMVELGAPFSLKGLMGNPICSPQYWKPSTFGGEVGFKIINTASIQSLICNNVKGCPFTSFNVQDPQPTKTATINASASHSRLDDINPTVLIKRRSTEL
Method: Second, the cyclooxygenase-2 was examined through the following procedure.
Peritoneal fluid suspended with macrophages was extracted from a mouse peritoneal cavity and centrifuged at 4° C., 1,000 rpm for 2 minutes. Then, the supernatant was removed, suspended using incomplete RPMI medium [PC/SM (penicilin/streptomycin)] and again centrifuged under the same condition. […] Then, the cell number was calculated with the hemocytometer and adjusted to reach 1×10^6 cells/ml of cell concentration in the final cell suspension. The resulting suspension was treated with aspirin, adjusting 500 μM of final concentration and transderred into each well of 96-well plate in 100 μl respectively. Again, it was left at 37° C. in 5% CO2 in the incubator for about 2 hours in order to attach macrophages. […] The resulting cell was cultivated in the incubator at 37° C. in 5% CO2 for about 12˜16 hours. Then, arachidonic acid was added, adjusting to 10 μM of a final concentration and incubated at 37° C. for more 10 minutes and the supernatant of the reacted solution (˜180 μl) was recovered to finish the reaction.

cyclooxygenase-1 = target: T2, cyclooxygenase-1 (Mus musculus, UniProt P22437); assay: Cyclooxygenase-1 inhibition in mouse peritoneal macrophages (PGE2 ELISA); assay type: cell-based; details: for Inhibitory effects of cyclooxygenase (COX), COX-1: mouse peritoneal macrophages
T2 construct: endogenous in cells; host or cells: primary mouse peritoneal macrophages (unstimulated)
T2 sequence (P22437 27-602): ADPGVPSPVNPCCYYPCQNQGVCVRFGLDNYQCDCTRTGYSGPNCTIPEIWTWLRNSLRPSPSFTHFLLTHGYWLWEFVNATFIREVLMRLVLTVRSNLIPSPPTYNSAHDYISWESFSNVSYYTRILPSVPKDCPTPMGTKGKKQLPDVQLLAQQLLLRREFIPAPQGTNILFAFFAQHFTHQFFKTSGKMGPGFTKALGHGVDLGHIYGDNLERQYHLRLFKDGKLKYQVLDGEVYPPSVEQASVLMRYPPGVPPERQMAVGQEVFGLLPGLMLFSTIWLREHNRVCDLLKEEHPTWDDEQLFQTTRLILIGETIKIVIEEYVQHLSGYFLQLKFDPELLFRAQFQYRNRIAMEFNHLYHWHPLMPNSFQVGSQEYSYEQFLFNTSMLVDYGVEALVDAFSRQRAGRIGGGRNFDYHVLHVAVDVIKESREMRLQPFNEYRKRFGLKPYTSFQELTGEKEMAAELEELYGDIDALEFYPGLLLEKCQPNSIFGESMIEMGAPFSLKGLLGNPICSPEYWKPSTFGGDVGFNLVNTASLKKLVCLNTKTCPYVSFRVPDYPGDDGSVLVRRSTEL
Method: First of all, the cyclooxygenase-1 was examined through the following procedure.
Peritoneal fluid in which macrophages were suspended was extracted from a mouse peritoneal cavity and centrifuged at 4° C., 1,000 rpm for 2 minutes. Then, the supernatant was removed, suspended with 20 ml of incomplete RPMI medium [PC/SM (penicilin/streptomycin)] and again centrifuged under the same condition. […] Then, the cell number was calculated with the hemocytometer and adjusted to reach 1×10^6 cells/ml of cell concentration in the final cell suspension. 100 μl of the resulting suspension was transferred into each well of 96-well plate and left at 37° C. in 5% CO2 with the incubator for about 2 hours in order to attach macrophages. […] The resulting cell was cultivated in the incubator at 37° C. in 5% CO2 for about 12˜16 hours. Then, arachidonic acid was added, adjusting to 10 μM of a final concentration and incubated at 37° C. for more 10 minutes and the supernatant of the reacted solution (˜180 μl) was recovered to finish the reaction.

[1] = compared with comparative substance

| Inhibitory effects of cyclooxygenase (COX), COX-2 (cyclooxygenase-2; 30 nM) | Inhibitory effects of cyclooxygenase (COX), COX-2 (cyclooxygenase-2; 100 nM) | Inhibitory effects of cyclooxygenase (COX), COX-2 (cyclooxygenase-2; 300 nM) | Inhibitory effects of cyclooxygenase (COX), COX-1 (cyclooxygenase-1; 3 μM) | Inhibitory effects of cyclooxygenase (COX), COX-1 (cyclooxygenase-1; 10 μM) | Inhibitory effects of cyclooxygenase (COX), COX-1 (cyclooxygenase-1; 30 μM) | selectivity of cyclooxygenase-2 (in words) (cyclooxygenase-2; COX-2 versus COX-1) | Structure (SMILES) | inhibition effect against cyclooxygenase-2 (in words) (cyclooxygenase-2; [1]) | inhibition effect against cyclooxygenase-1 (in words) (cyclooxygenase-1; [1]) |
| --- | --- | --- | --- | --- | --- | --- | --- | --- | --- |
| 50.1 % inhibition | 58.8 % inhibition | 70.2 % inhibition | 60.4 % inhibition | 64.4 % inhibition | 74.6 % inhibition | – | O=[N+]([O-])c1ccc2c(ccn2Cc2ccc(F)cc2)c1 [Example 3, 1-(4-fluoro-benzyl)-5-nitro-1H-indole] | – | – |
| 20.4 % inhibition | 25.5 % inhibition | 30.1 % inhibition | 22.8 % inhibition | 31.1 % inhibition | 42.1 % inhibition | – | CS(=O)(=O)Nc1ccc2c(ccn2C(=O)c2ccccc2)c1 [Example 9, N-(1-benzoyl-1H-indole-5-yl)-methanesulfonamide] | – | – |
| 33.4 % inhibition | 46.6 % inhibition | 54.9 % inhibition | 52.3 % inhibition | 57.3 % inhibition | 64.8 % inhibition | – | Nc1ccc2c(ccn2C(=O)c2ccccc2)c1 [Example 6, 1-benzoyl-5-amino-1H-indole] | – | – |
| 59.8 % inhibition | 70.6 % inhibition | 76.8 % inhibition | 30.0 % inhibition | 44.1 % inhibition | 56.4 % inhibition | better than any other substances | CS(=O)(=O)Nc1ccc2c(ccn2Cc2ccccc2)c1 [Example 7, N-(1-benzyl-1H-indole-5-yl)-methanesulfonamide] | more excellent than a comparative substance | in much lower level than a comparative substance |
| ˜0 % inhibition | ˜0 % inhibition | ˜0 % inhibition | 33.2 % inhibition | 40.7 % inhibition | 45.8 % inhibition | – | O=C(c1ccccc1)n1ccc2cc([N+](=O)[O-])ccc21 [Example 1, 1-benzoyl-5-nitro-1H-indole] | – | – |
| 51.2 % inhibition | 55.4 % inhibition | 61.4 % inhibition | 39.9 % inhibition | 47.1 % inhibition | 54.3 % inhibition | – | CC(C)c1ccc(Cn2ccc3cc([N+](=O)[O-])ccc32)cc1 [Example 5, 1-(4-isopropyl-benzyl)-5-nitro-1H-indole] | – | – |
| 22.1 % inhibition | 28.6 % inhibition | 29.6 % inhibition | 7.6 % inhibition | 32.3 % inhibition | 53.9 % inhibition | – | CS(=O)(=O)Nc1ccc2c(ccn2Cc2ccc(F)cc2)c1 [Example 8, N-[1-(4-fluoro-benzyl)-1H-indole-5-yl]-methansulfonamide] | – | – |
| 55.4 % inhibition | 69.9 % inhibition | 81.5 % inhibition | 60.3 % inhibition | 71.1 % inhibition | 80.1 % inhibition | – | COc1ccc(Cn2ccc3cc([N+](=O)[O-])ccc32)cc1 [Example 4, 1-(4-methoxy-benzyl)-5-nitro-1H-indole] | – | – |
| 15.7 % inhibition | 20.7 % inhibition | 22.0 % inhibition | 56.7 % inhibition | 68.7 % inhibition | 80.4 % inhibition | – | O=[N+]([O-])c1ccc2c(ccn2Cc2ccccc2)c1 [Example 2, 1-benzyl-5-nitro-1H-indole] | – | – |
